Measurements as given in patent US8350085B2, “Cocrystallization” (New Form Pharmaceuticals Inc., priority 2003, dated 2013).
Like-named read-outs stand apart in the source and are kept apart here.

[1] = compared with crystals of fluoxetine HCl

CNCCC(Oc1ccc(C(F)(F)F)cc1)c1ccccc1.Cl.O=C(O)c1ccccc1 (stereo not drawn) [fluoxetine HCl:benzoic acid, fluoxetine HCl:benzoic acid (1:1)]
dissolution rate (Example 1 cocrystal): relatively slow
dissolution rate [1]: lower dissolution rate

CNCCC(Oc1ccc(C(F)(F)F)cc1)c1ccccc1.Cl.O=C(O)CCC(=O)O (stereo not drawn) [fluoxetine HCl:succinic acid, fluoxetine HCl:succinic acid (2:1)]
dissolution rate [1]: faster dissolution rate
